Measurements from US6844313B1, “Composition containing a meiosis activating substance” (Novo Nordisk A/S, priority 1999, dated 2005).
≈ marks a conversion by molar mass, not a printed value. Read-outs that look alike come from different tables or passages of the source.

How the values were obtained:
[1] = Solubility of FF-MAS in water, ethanol and ethanol/water; type: physicochemical
Description: The solubility of a preferred MAS, i.e., FF-MAS, in water is very low, i.e., approximately 20 picogram/ml (corresponding to 2×10^−5 μg/ml), and in ethanol the solubility is substantially higher, i.e., approximately 4 mg/ml. According to our preliminary investigations, the highest solubility of FF-MAS in a mixture of ethanol and water (1:2.5) is approximately 0.4 mg/ml.

[2] = Solubility and appearance of FF-MAS in water/ethanol containing HSA before evaporation; type: physicochemical; settings: Example 3; ethanol/water mixture containing HSA
Description: Prepare a saturated ethanolic solution of FF-MAS. Blend with an aqueous solution of the additive in the ration 1:2,5. By visual inspection control that surplus FF-MAS is available in the solution. Rotate the solution for 24 hours at room temperature. Filter the solution through 0,22 […] filter, determine the content of FF-MAS by HPLC and calculate the solubility. Transfer 350μl to 4-well dish and evaporate to dryness at room temperature. Add 500μl MEM AL- PHA medium (Gibcobal). If a clear solution is obtained within half an hour, the composition is tested on oocytes obtained from immature female mice. % GVB obtained is at least 50%, preferable 80%, vide example 1.
In this example, 3 products were prepared. Referring to the table below, the stock solution of FF-MAS used for product 1, 2, and 3 contained 50, 500 and 3330 μg/ml, respectively. For each of the products, the stock solution of HSA contained 20% HSA. The amount of said stock solutions used is stated in the table. For example, for product 1, 400 μl of the FF-MAS stock solution was mixed with 1000 μl of the HSA stock solution. After mixing of these stock solutions, the solutions were clear, and no precipitation was observed therein. After mixing, the amount thereof stated in the table was transferred to 4-well multi-dishes (Nuclon, Denmark). […]

For `CC(C)=CCC[C@@H](C)[C@H]1CC=C2C3=C(CC[C@@]21C)[C@@]1(C)CC[C@H](O)C(C)(C)[C@@H]1CC3` [FF-MAS, 4,4-dimethyl-5 α-cholesta-8,14,24-triene-3β-ol], the solubility ([1]; ethanol, organic solvent or mixture, read-out: solubility in ethanol) was ~4000 µg/mL (≈ 9.74 mM), the solubility ([1]; ethanol/water (1:2.5), aqueous with cosolvent or surfactant or cyclodextrin, ethanol and water (1:2.5), no additive, preliminary investigations, read-out: highest solubility in a mixture of ethanol and water (1:2.5)) was ~400 µg/mL (≈ 0.974 mM) and the solubility in water ([1]; water) was “approximately 20 picogram/ml”. For the same compound, the “highest concentration of FF-MAS dissolved” value [2] was 0.95 mg/mL.
